Experimental data reported in patent US20240285586A1, “METHODS FOR TREATING BACTERIAL CELL POPULATIONS” (THE HONG KONG POLYTECHNIC UNIVERSITY, priority 2021, published 2024).
Several values for one entry are separate records, joined by “and”; a condition that tells them apart may be missing. Identical values can stand only once. Residues, ends and D or L forms follow the SMILES beside them. *: point of attachment. βNA = c1ccc2cc(N*)ccc2c1

Tests used:
[1] = tested on: E. coli BW25113 wild type; assay: Antibiotic accumulation assay (BOCILLIN, flow cytometry), wild type; assay type: cell-based, Escherichia coli; conditions: 24 hrs starvation, BOCILLIN 10 μg/mL
Experimental: (§1) Antibiotic accumulation assay. The overnight bacteria culture was diluted 100-fold in LB broth and cultivated for about 1 hr until the OD600 value reached 0.2 (exponential phase). Aliquots of this exponential phase culture were washed and re-suspended in saline, cultured at 37° C. under constant shaking (250 rpm) for 24 hrs, followed by addition of CCCP (1 μM). After 5 mins, BOCILLIN™ FL Penicillin (10 μg/mL) was added and incubated at 37° C. with shaking at 250 rpm for 1 hr. Upon washing twice with PBS, fluorescence signal was measured by flow cytometry CytoFLEX (Beckman). Microorganisms were identified by FSC (forward scatter) and SSC (side scatter) parameters. Fluorescence intensity was measured at 488-nm excitation, 525-nm emission.

[2] = tested on: E. coli ΔpspA; assay: Antibiotic accumulation assay (BOCILLIN, flow cytometry), ΔpspA; assay type: cell-based, Escherichia coli; conditions: 24 hrs starvation, no CCCP
Experimental: as §1

[3] = tested on: K. pneumoniae; assay: Starvation-induced tolerance assay, K. pneumoniae; assay type: cell-based, Klebsiella pneumoniae
Experimental: (§2) Tolerance assay. […] Standard serial dilution and plating on LB agar was performed before and after ampicillin treatment for 4 hrs, 2 days, 4 days and 6 days to determine the fraction of the test population that survived at different time points during the course of treatment.
(§3) Standard serial dilution and plating on LB agar was performed on samples collected every 24 hrs to assess changes in the size of the sub-population that survived during the treatment process.
(§4) Upon reaching the exponential phase, bacteria were washed and re-suspended in saline (0.9% NaCl), and then incubated at 37° C. under constant shaking (250 rpm/min) for 24 hrs. […] Standard serial dilution and plating on LB agar were performed before and after ampicillin treatment for 4 hrs, 1 day, 2 days and 4 days to determine the fraction of the test population that survived at different time points during the course of treatment.

[4] = tested on: E. coli wild type strain; assay: Assessment of efflux activity (Nile Red); assay type: cell-based, Escherichia coli; conditions: CCCP 100 μM, within 30 mins, increased from ~6500 RFU
Experimental: Assessment of efflux activity. A10-mL portion of bacterial population which had been subjected to 24 hrs starvation was centrifuged at 6000×g for 5 mins at room temperature. The pellet was re-suspended in PBS containing 1 mM MgCl2(PPB) and adjusted to OD600 0.2. Nile Red which fluoresces only weakly in aqueous solutions but becomes strongly fluorescent in nonpolar environments was added to produce a final concentration of 5 μM followed by incubation at 37° C. for 30 mins, with 250 rpm shaking. CCCP was then added to produce a final concentration of 100 μM; fluorescence was measured for a period of 30 mins by a Clariostar Microplate Reader at an excitation wavelength of 544±10 nm and an emission wavelength of 650±10 nm.

[5] = tested on: S. typhimurium; assay: Starvation-induced tolerance assay, S. typhimurium; assay type: cell-based
Experimental: as §2, §3, §4

[6] = tested on: A. baumannii; assay: Starvation-induced tolerance assay, A. baumannii; assay type: cell-based, Acinetobacter baumannii
Experimental: as §2, §3, §4

[7] = tested on: Gram negative strains; assay: Minimal inhibitory concentration, Gram negative strains; assay type: cell-based; conditions: all Gram negative test strains
Source text: Determination of Minimal Inhibitory Concentrations (MICs).

[8] = general statement; cited from earlier work
[9] = tested on: S. aureus; assay: Starvation-induced tolerance assay, S. aureus; assay type: cell-based, Staphylococcus aureus
Experimental: as §2, §3, §4

[10] = tested on: E. coli BW25113; assay: Starvation-induced tolerance assay, wild type E. coli; assay type: cell-based, Escherichia coli; conditions: for size of the E. coli population: within 24 hrs
Experimental: as §2, §3, §4

[11] = tested on: Escherichia coli BW25113; assay: Effect of PAβN on bacterial growth rate; assay type: cell-based; conditions: PAβN 100 μM in LB broth
Experimental: Assessment of effect of PAβN on bacterial growth rate. The overnight culture of the Escherichia coli BW25113 strain was diluted 1:100 in LB Broth, followed by addition of 100 μM PAβN; a sample in which only saline was added was included as negative control. OD600 value was tested at different time points.

[12] = tested on: E. coli tolerant cells; assay: Scanning electron microscopy of tolerant cells; assay type: cell-based, Escherichia coli; conditions: ampicillin 100 μg/ml and 1000 μg/ml, 24 hours
Experimental: Electron microscopy analysis. E. coli which had been subjected to starvation for 24 hours were treated with econazole alone, ampicillin alone and a combination of econazole and ampicillin for 24 hours, followed by examination under scanning electron microscopy (SEM). Cells treated with saline were included as negative control. Briefly, bacterial cells were fixed in 0.4% polyoxymethylene overnight and then in Osmium tetroxide (OsO4) for 2 hrs, followed by washing for three times with PBS. The cells were then dehydrated using pure ethanol, and infiltrated and embedded in Spurr resin for examination by SEM.

[13] = tested on: E. coli BW25113 ΔpspA; assay type: cell-based, Escherichia coli
Experimental: as §2, §3

[14] = tested on: E. coli ΔtolC mutant; assay: Starvation-induced tolerance assay, ΔtolC knockout; assay type: cell-based, Escherichia coli; conditions: ampicillin for six days
Experimental: as §2

[15] = tested on: E. coli BW25113::ΔnuoI; assay: Starvation-induced tolerance assay, ΔnuoI knockout; assay type: cell-based, Escherichia coli; conditions: 24 hrs starvation, then six days of ampicillin treatment
Experimental: as §2

[16] = tested on: E. coli BW25113::ΔndhΔnuoI; assay: Starvation-induced tolerance assay, ΔndhΔnuoI double knockout; assay type: cell-based, Escherichia coli; conditions: ampicillin for six days
Experimental: as §2

[17] = tested on: S. typhimurium PY1; assay: Mouse peritonitis infection (tolerance sepsis) model; assay type: in vivo
Experimental: NIH male mice of about six-weeks-old with body weight of ˜20 g were used, 6 mice per group. The animals were allowed to acclimate to the housing facility for 5 days. The mice were made neutropenic by administering 150 mg/kg cyclophosphamide 3 days and 1 day before infection. Different amounts of S. typhimurium strain PY01 (2.8×10^5 CFU, 7.6×10^5 CFU or 1.5×10^6 CFU) were inoculated into the animals via intraperitoneal injection. The mice were subjected to ceftazidime (20 mg/kg), econazole (20 mg/kg) or ceftazidime combining econazole treatment (i.p.) 24 h after inoculation, at 12 hrs intervals for 72 hrs randomly. The mortality rate of the test mice was recorded every 12 hrs. After 72 h of treatment, live mice were euthanized and subjected to peritoneal washes which involved injection of 2 mL of saline into the intraperitoneal space, followed by abdominal massage. The abdomen was then cut open and 200 μL of peritoneal fluid were collected and serially diluted in saline. A 100 μL portion of each dilution was spread on LB plates, followed by incubation overnight at 37° C. Colonies were counted to determine the bacterial load in the test samples, which were expressed as CFU/ml. Statistical analysis and ethic approval were the same as described above.

[18] = tested on: E. coli J53 (mcr-1); assay: MIC of colistin in presence and absence of compound, broth dilution; assay type: cell-based, Escherichia coli; conditions: antibiotic resistant E. coli (FIG. 20)
[19] = tested on: E. coli; assay: Membrane potential assay DiSC3(5), E. coli; assay type: cell-based, Escherichia coli; conditions: valinomycin 1 μM, positive control, exponential phase
Experimental: Membrane potential assay. The transmembrane electrical potential was measured by using a membrane potential-sensitive probe, DiSC3(5). Bacterial population in either the exponential phase (OD600 of 0.2) or under 24 hrs starvation (resuspended in saline) were collected by centrifugation (6000×g, 2 mins), washed twice and re-suspended in PBS (pH 7.4), and then adjusted to OD600 of 0.2. KCl and DiSC3(5) were added until final concentration of 100 mM and 1 μM was respectively reached, followed by incubation at room temperature for 25 mins in the dark to allow the dye to penetrate through the outer membrane and produce a quenching effect. […] The fluorescence reading was monitored by using a Clariostar Microplate Reader (BMG LABTECH) at an excitation wavelength of 622±10 nm and an emission wavelength of 670±10 nm for 10 mins. Upon depolarization, the dye was rapidly released into the medium, resulting in dequenching and facilitating detection fluorometrically. […] The sample preparation method is same as that prior to testing with the Microplate Reader except for the last step. Briefly, cells were washed with PBS three times before confocal observation to remove extracellular DiSC3(5) dye. […] DiSC3(5) was excited by 638 nm laser and fluorescence was detected by HyD detector at emission wavelength 675±25 nm. The images were acquired and analyzed by the Leica Application Suite X (LAS X) software. […]

[20] = tested on: E. coli BW25113 and its ΔpspA derivative; assay: Membrane permeability assay (SYTOX Green); assay type: cell-based, Escherichia coli; conditions: colistin, positive control; similar in wild type and ΔpspA
Experimental: Membrane permeability assay. The membrane permeability or integrity of the test organisms was measured using SYTOX Green (ThermoFisher), which can enter the cell through damaged cell membrane and bind to nucleic acid, generating fluorescence signal. E. coli BW25113 and its ΔpspA derivative at a concentration of OD600 of 0.2, which had been subjected to 24 hrs starvation, were collected by centrifugation (6000×g, 2 mins), washed twice and re-suspended in saline. SYTOX Green was then added to give a final concentration of 1 μM, followed by incubation for 30 min in the dark at room temperature. The relative fluorescence signal in the wild type and ΔpspA strain was measured by a Cary Eclipse Fluorescence Spectrophotometer (Agilent), with an excitation wavelength of 488±10 nm and an emission wavelength of 523±10 nm.

[21] = CCCP 100 μM, absence of ampicillin
[22] = low concentration of CCCP + 10×MIC ampicillin

## Cc1cc(C)n2c1C=C1C=CC(CCC(=O)Nc3ccc(OCC(=O)N[C@@H]4C(=O)N5[C@@H]4SC(C)(C)[C@@H]5C(=O)[O-])cc3)=[N+]1[B-]2(F)F.[Na+] [BOCILLIN]
[1]; absence of CCCP
  cells exhibiting high BOCILLIN intensity (>10^3 RFU): 10.45%
[2]
  cells that exhibited high BOCILLIN level: 18.52%

## N#CC(C#N)=NNc1cccc(Cl)c1 [CCCP, carbonyl cyanide-m-chlorophenylhydrazone]
[3]; [21]
  eradication of tolerant cells: could eradicate tolerant bacteria cells
[3]; [22]
  effect on phenotypic ampicillin tolerance: sufficient to suppress or even completely abolish phenotypic ampicillin tolerance
[1]; CCCP (1 μM) treatment
  cells exhibiting high BOCILLIN intensity (>10^3 RFU): 97.86%
[4]
  Nile Red fluorescence intensity: ~10000 RFU
[5]; [21]
  eradication of tolerant cells: could eradicate tolerant bacteria cells
[5]; [22]
  effect on phenotypic ampicillin tolerance: sufficient to suppress or even completely abolish phenotypic ampicillin tolerance
[6]; [21]
  eradication of tolerant cells: could eradicate tolerant bacteria cells
[6]; [22]
  effect on phenotypic ampicillin tolerance: sufficient to suppress or even completely abolish phenotypic ampicillin tolerance
[7]
  MIC: > 160 µM
[8]
  toxicity or safety in human: toxic to human
[9]; [21]
  eradication of tolerant cells: could eradicate tolerant bacteria cells
[9]; [22]
  effect on phenotypic ampicillin tolerance: sufficient to suppress or even completely abolish phenotypic ampicillin tolerance
[10]; CCCP 1 μM + ampicillin, […], after 24 hrs starvation
  population size: ~80 cells/mL
[10]; CCCP 1 μM + ciprofloxacin 0.5 μg/mL
  tolerance to ciprofloxacin: not affected
[10]; CCCP 1 μM + gentamicin 10 μg/mL
  phenotypic tolerance to gentamicin upon PMF dissipation: cannot be maintained
[10]; CCCP 1 μM alone, […], after 24 hrs starvation
  size of the surviving population: remained unchanged
[10]; CCCP 100 μM + ampicillin
  size of the E. coli population: ~2×10^4 cells/mL
[10]; CCCP 100 μM alone, from ~2.5×10^7 cells/mL
  size of the E. coli population: ~5×10^5 cells/mL
[10]; CCCP 100 μM with ampicillin
  time to eradication of the entire antibiotic tolerant population: ≤ 48 h
[10]; CCCP 100 μM without ampicillin
  time to eradication of the entire antibiotic tolerant population: ≤ 48 h
[10]; CCCP (100 μM) + ampicillin
  killing effect compared with CCCP alone: significantly stronger
[10]; CCCP (concentration not stated) and ampicillin, six days
  entire tolerant cell population: ~50 cells/mL
[10]; CCCP alone (100 μM)
  killing of bacterial tolerant cells: kill bacterial tolerant cells

## N=C(N)NCCC[C@H](NC(=O)[C@@H](N)Cc1ccccc1)C(=O)Nc1ccc2ccccc2c1 [PAβN] (H-Phe-Arg-βNA)
[11]
  effect on bacterial growth: did not exert any negative effect on bacterial growth

## CC1(C)S[C@@H]2[C@H](NC(=O)[C@H](N)c3ccccc3)C(=O)N2[C@H]1C(=O)O [ampicillin]
[12]
  cell morphology under SEM: slight shrinkage in the pole areas
[13]; 24 hrs starvation, then ampicillin 100 μg/mL for 6 days
  size of the antibiotic tolerant sub-population: ~3×10^5 cells/mL
[13]; after 6 days of ampicillin treatment
  tolerant sub-population relative to that of wild type: 10%
[14]
  size of the tolerant population: ~5×10^4 cells/mL
[15]
  population size: ~3.5×10^5 cell/mL
[16]
  reduction of the tolerant population: ~10^4 fold
  size of the tolerant population: ~200 cells/mL
[10]; wild type, 24 hrs starvation, then ampicillin 100 μg/mL (~10×MIC) for 6 days
  size of the antibiotic tolerant sub-population: 4×10^6 cells/mL and ~2.5×10^7 cells/mL

## CC(C)(O/N=C(\C(=O)N[C@@H]1C(=O)N2C(C(=O)[O-])=C(C[n+]3ccccc3)CS[C@H]12)c1csc(N)n1)C(=O)O [ceftazidime]
[5]; ceftazidime alone (100 μg/ml), 96 hrs (FIG. 16F)
  size of the tolerant population: ~1.4×10^7 CFU/mL
[17]; ceftazidime alone 20 mg/kg, 1.5×10^6 CFU
  infected mice rescued: 10%
[17]; ceftazidime alone 20 mg/kg, inoculation of 7.6×10^5 CFU
  protection of the test animals from death: could protect the test animals from being killed
[17]; ceftazidime only 20 mg/kg, lower inoculum (FIG. 19F), P=0.0004
  rate of eradication of PY1 tolerant sub-population compared with the econazole and ceftazidime combination: significantly slower

## C=CCOC(Cn1ccnc1)c1ccc(Cl)cc1Cl (stereo not drawn) [enilconazole]
[18]
  effect of co-administration with colistin: bactericidal synergistic effect

## N#C/C(=C1/SC[C@@H](c2ccc(Cl)cc2Cl)S1)n1ccnc1 [lulionazole]
[18]
  effect of co-administration with colistin: bactericidal synergistic effect

## Clc1ccc(COC(Cn2ccnc2)c2ccc(Cl)cc2Cl)c(Cl)c1 (stereo not drawn) [miconazole]
[18]
  effect of co-administration with colistin: bactericidal synergistic effect

## Clc1ccc(C(Cn2ccnc2)OCc2csc3c(Cl)cccc23)c(Cl)c1 (stereo not drawn) [sertaconazole]
[18]
  effect of co-administration with colistin: bactericidal synergistic effect

## Clc1ccc(C(Cn2ccnc2)OCc2ccsc2Cl)c(Cl)c1 (stereo not drawn) [tioonazole]
[18]
  effect of co-administration with colistin: bactericidal synergistic effect

## CC(C)[C@@H]1NC(=O)[C@H](C)OC(=O)[C@@H](C(C)C)NC(=O)[C@@H](C(C)C)OC(=O)[C@H](C(C)C)NC(=O)[C@H](C)OC(=O)[C@@H](C(C)C)NC(=O)[C@@H](C(C)C)OC(=O)[C@H](C(C)C)NC(=O)[C@H](C)OC(=O)[C@@H](C(C)C)NC(=O)[C@@H](C(C)C)OC1=O [valinomycin]
[19]
  effect on membrane potential (DiSC3(5) fluorescence): caused dissipation of membrane potential

## colistin
[20]
  effect on membrane permeability (SYTOX Green): cause membrane damage and an eventual increase in membrane permeability
